How the values were obtained:
OVCAR-8 = assay: Concentration required to inhibit growth of human ovarian (OVCAR8) cell line; format: functional
PC-3 = assay: Concentration required to inhibit growth of human prostate (PC3) cell line; format: functional
SW-620 = assay: Concentration required to inhibit growth of human colon (SW620) cell line; format: functional
UACC-62 = assay: Concentration required to inhibit growth of human melanoma (UACC62) cell line; format: functional
NCI/ADR-RES = assay: in vitro inhibition of MCF-7/ADR (human breast cancer) cell growth.; format: functional
ACHN = assay: Concentration required to inhibit growth of human renal (ACHN) cell line; format: functional
U-251 = assay: Concentration required to inhibit growth of human CNS (U251) cell line; format: functional
HT-29 = assay: Concentration required to inhibit growth of human colon (HT-29) cell line; format: functional
MCF7 = assay: Concentration required to inhibit growth of human breast (MCF-7) cell line; format: functional
SK-OV-3 = assay: Concentration required to inhibit growth of human ovarian (SK-OV3) cell line; format: functional
DU-145 = assay: In vitro inhibition of DU145 (human prostate cancer) cell growth.; format: functional
NCI-H522 (Homo sapiens) = assay: Concentration required to inhibit growth of human lung (H522) cell line

Work on `O=S(=O)(/C=C/c1ccc(F)cc1F)Cc1ccc(Nc2ncnc3ccccc23)cc1` yielded a GI50 (OVCAR-8) greater than 100 µM, a GI50 (PC-3) greater than 100 µM and a GI50 (SW-620) of 86 µM. The GI50 (UACC-62) was greater than 100 µM, the GI50 (NCI/ADR-RES) was greater than 100 µM and the GI50 (ACHN) was 31 µM. It also gave a GI50 (U-251) greater than 100 µM, a GI50 (HT-29) greater than 100 µM and a GI50 (MCF7) greater than 100 µM. It also gave a GI50 (SK-OV-3) of 69 µM.
`O=S(=O)(/C=C/c1ccc(O)cc1)Cc1ccc(Nc2ncnc3ccccc23)cc1` was tested, and the GI50 (OVCAR-8) was 1 µM, the GI50 (PC-3) was 14 µM and the GI50 (DU-145) was 19 µM. It also gave a GI50 (SW-620) of 100 µM, a GI50 (UACC-62) of 100 µM and a GI50 (ACHN) of 0.02 µM. For the same compound, the GI50 (NCI-H522 (Homo sapiens)) was 100 µM, the GI50 (U-251) was 0.3 µM and the GI50 (HT-29) was 2 µM. It also gave a GI50 (MCF7) of 100 µM and a GI50 (SK-OV-3) of 14 µM.
With `O=S(=O)(/C=C/c1ccc(Cl)cc1)Cc1ccc(Nc2ncnc3ccccc23)cc1` the GI50 (OVCAR-8) was greater than 100 µM, the GI50 (PC-3) was 43 µM and the GI50 (DU-145) was greater than 100 µM. It also gave a GI50 (SW-620) of 77 µM, a GI50 (UACC-62) of 13 µM and a GI50 (NCI/ADR-RES) greater than 100 µM. It also gave a GI50 (ACHN) greater than 100 µM, a GI50 (NCI-H522 (Homo sapiens)) of 46 µM and a GI50 (U-251) of 49 µM. For the same compound, the GI50 (HT-29) was 73 µM, the GI50 (MCF7) was 52 µM and the GI50 (SK-OV-3) was 54 µM.
`O=S(=O)(/C=C/c1ccc(F)cc1F)Cc1ccc(Nc2ncnc3ccc(Br)cc23)cc1` was tested, and the GI50 (OVCAR-8) was 100 µM, the GI50 (PC-3) was 100 µM and the GI50 (SW-620) was 100 µM. For the same compound, the GI50 (UACC-62) was 3 µM, the GI50 (NCI/ADR-RES) was 100 µM and the GI50 (ACHN) was 8 µM. The GI50 (NCI-H522 (Homo sapiens)) was 100 µM, the GI50 (U-251) was 32 µM and the GI50 (HT-29) was 100 µM. The GI50 (MCF7) was 100 µM and the GI50 (SK-OV-3) was 2 µM.
For `O=S(=O)(/C=C/c1ccc(C(F)(F)F)cc1F)Cc1ccc(Nc2ncnc3cc(Cl)ccc23)cc1`, the GI50 (OVCAR-8) was greater than 100 µM, the GI50 (PC-3) was greater than 100 µM and the GI50 (DU-145) was greater than 100 µM. For the same compound, the GI50 (SW-620) was greater than 100 µM, the GI50 (UACC-62) was greater than 100 µM and the GI50 (NCI/ADR-RES) was greater than 100 µM. The GI50 (ACHN) was greater than 100 µM, the GI50 (NCI-H522 (Homo sapiens)) was greater than 100 µM and the GI50 (U-251) was greater than 100 µM. It also gave a GI50 (HT-29) greater than 100 µM, a GI50 (MCF7) greater than 100 µM and a GI50 (SK-OV-3) greater than 100 µM.
`COc1cc2ncnc(Nc3ccc(CS(=O)(=O)/C=C/c4ccc(Cl)cc4Cl)cc3)c2cc1OCCCN1CCOCC1` showed a GI50 (OVCAR-8) of 12 µM, a GI50 (PC-3) of 5 µM and a GI50 (DU-145) of 1.3 µM. For the same compound, the GI50 (SW-620) was 7 µM, the GI50 (UACC-62) was 23 µM and the GI50 (NCI/ADR-RES) was greater than 100 µM. For the same compound, the GI50 (ACHN) was 3.4 µM, the GI50 (U-251) was 4 µM and the GI50 (HT-29) was 4 µM. For the same compound, the GI50 (MCF7) was 54 µM and the GI50 (SK-OV-3) was 2.4 µM.
With `COc1cc2ncnc(Nc3ccc(CS(=O)(=O)/C=C/c4ccc(F)cc4)cc3)c2cc1OCCCN1CCOCC1` the GI50 (OVCAR-8) was greater than 100 µM, the GI50 (PC-3) was 28 µM and the GI50 (DU-145) was 4 µM. The GI50 (SW-620) was greater than 100 µM, the GI50 (UACC-62) was 55 µM and the GI50 (NCI/ADR-RES) was 3 µM. The GI50 (ACHN) was 0.2 µM, the GI50 (NCI-H522 (Homo sapiens)) was greater than 100 µM and the GI50 (U-251) was 18 µM. For the same compound, the GI50 (HT-29) was greater than 100 µM, the GI50 (MCF7) was 3 µM and the GI50 (SK-OV-3) was greater than 100 µM.
`CC(C)(C)c1cc(/C=C/S(=O)(=O)Cc2ccc(Nc3ncnc4ccccc34)cc2)cc(C(C)(C)C)c1O` was tested, and the GI50 (OVCAR-8) was 5 µM, the GI50 (PC-3) was 7 µM and the GI50 (DU-145) was 1 µM. The GI50 (SW-620) was 9 µM, the GI50 (UACC-62) was 6 µM and the GI50 (NCI/ADR-RES) was greater than 100 µM. It also gave a GI50 (ACHN) greater than 100 µM, a GI50 (NCI-H522 (Homo sapiens)) of 45 µM and a GI50 (U-251) of 38 µM. It also gave a GI50 (HT-29) of 17 µM, a GI50 (MCF7) of 13 µM and a GI50 (SK-OV-3) of 3 µM.
With `COc1cc2ncnc(Nc3ccc(CS(=O)(=O)/C=C/c4ccc(F)cc4)cc3)c2cc1OC` the GI50 (OVCAR-8) was greater than 100 µM, the GI50 (PC-3) was greater than 100 µM and the GI50 (DU-145) was greater than 100 µM. It also gave a GI50 (SW-620) greater than 100 µM, a GI50 (UACC-62) greater than 100 µM and a GI50 (NCI/ADR-RES) greater than 100 µM. For the same compound, the GI50 (ACHN) was greater than 100 µM, the GI50 (NCI-H522 (Homo sapiens)) was greater than 100 µM and the GI50 (U-251) was greater than 100 µM. The GI50 (HT-29) was greater than 100 µM, the GI50 (MCF7) was greater than 100 µM and the GI50 (SK-OV-3) was greater than 100 µM.
In the case of `O=S(=O)(/C=C/c1ccc(Cl)cc1Cl)Cc1ccc(Nc2ncnc3cc(Cl)ccc23)cc1`, the GI50 (OVCAR-8) is reported as greater than 100 µM, the GI50 (PC-3) is reported as 38 µM and the GI50 (SW-620) is reported as greater than 100 µM. The GI50 (UACC-62) was 32 µM, the GI50 (NCI/ADR-RES) was greater than 100 µM and the GI50 (ACHN) was 8 µM. For the same compound, the GI50 (NCI-H522 (Homo sapiens)) was 76 µM, the GI50 (U-251) was 53 µM and the GI50 (HT-29) was 59 µM. The GI50 (MCF7) was 25 µM and the GI50 (SK-OV-3) was 48 µM.
In the case of `O=S(=O)(/C=C/c1ccc(Cl)c(Cl)c1)Cc1ccc(Nc2ncnc3ccc(Br)cc23)cc1`, the GI50 (OVCAR-8) is reported as 0.1 µM, the GI50 (PC-3) is reported as 11 µM and the GI50 (DU-145) is reported as 17 µM. For the same compound, the GI50 (SW-620) was 5 µM, the GI50 (UACC-62) was 30 µM and the GI50 (NCI-H522 (Homo sapiens)) was greater than 100 µM. For the same compound, the GI50 (U-251) was greater than 100 µM, the GI50 (HT-29) was 27 µM and the GI50 (MCF7) was 14 µM.
With `O=S(=O)(/C=C/c1ccc(F)cc1Cl)Cc1ccc(Nc2ncnc3ccccc23)cc1` the GI50 (OVCAR-8) was 100 µM, the GI50 (PC-3) was 100 µM and the GI50 (SW-620) was 100 µM. It also gave a GI50 (UACC-62) of 100 µM, a GI50 (NCI/ADR-RES) of 66 µM and a GI50 (ACHN) of 73 µM. The GI50 (NCI-H522 (Homo sapiens)) was 100 µM, the GI50 (U-251) was 100 µM and the GI50 (HT-29) was 100 µM. The GI50 (MCF7) was 21 µM and the GI50 (SK-OV-3) was 44 µM.
`O=S(=O)(/C=C/c1ccc(Br)cc1)Cc1ccc(Nc2ncnc3ccc(Br)cc23)cc1` was tested, and the GI50 (OVCAR-8) was 2 µM, the GI50 (PC-3) was 34 µM and the GI50 (DU-145) was 3 µM. The GI50 (SW-620) was greater than 100 µM, the GI50 (UACC-62) was greater than 100 µM and the GI50 (NCI-H522 (Homo sapiens)) was 20 µM. It also gave a GI50 (U-251) of 11 µM, a GI50 (HT-29) of 10 µM and a GI50 (MCF7) of 5 µM.

From ChEMBL document CHEMBL1146712, “Synthesis and biological evaluation of [4-(2-phenylethenesulfonylmethyl)phenyl]-quinazolin-4-yl-amines as orally active anti-cancer agents” (2004)
